Measurements as given in patent US20110294794A1, “TREATMENT OF PROTEINOPATHIES USING A FARNESYL TRANSFERASE INHIBITOR” (Link Medicine Corporation, priority 2008, published 2011).
Entries after “also recorded” stand apart in the source; their conditions may differ.

Legend:
α-synuclein = assay: Masliah D-line human WT α-synuclein transgenic mouse, α-synuclein immunoreactivity / ELISA; type: in vivo; settings: for α-synuclein deposition in cortex and hippocampus: three months (FIG. 9a); for number of α-synuclein positive neurons in the brain: higher-dose trial (FIG. 2A)
Procedure: Animals and treatments: Male and female human WT alpha-synuclein over-expressing transgenic mice^32 at 6 months of age were given vehicle (10% beta-cyclodextrin) or LNK-754-TS (0.09, 0.9 and 9 mg/kg) per oral gavage twice daily for 3 months or animals at 7 months of age were given vehicle (2.5% beta-cyclodextrin) or LNK-754-TS (2 mg/kg) once every three days for 3 months. Male and female TAU transgenic mice expressing TAU441 bearing the missense mutations V337M^50 and R406W under the control of the murine Thy-1 promoter with a CB6xC57BL/6 background were 5 months old at the time when the oral treatment for three months with LNK-754-TS (0.9 and 0.09 mg/kg) as well as vehicle (2.5% beta-cyclodextrin) was started. Female human APP/PS1 (APP (London V7171)/PS1(A246E)) over-expressing transgenic mice were treated with LNK-754-TS (0.9 mg/kg) or vehicle (2.5% beta-cyclodextrin) for 2 months or 12 days.
Immunohistochemistry and quantification of stained cells: For evaluation of α-synuclein immunoreactivity (IR), 5 sagittal cryo-cut sections (10 μm slice thickness) from five different layers were used for counting of IR cells in the cortex and hippocampus. Brain sections were stained with a monoclonal human α-synuclein specific antibody (Alexis®; Cat# 804-258-L001; dilution 1:5), followed by a secondary Ab Cy 2-Goat Anti-Rat (Jackson ImmunoResearch®; dilution 1:200). IR positive cells were quantified using specialized image analysis software (Image Pro Plus, version 4.5.1.29). For Tau transgenic animals, 5 μm thick coronal paraffin sections were stained with the monoclonal mouse anti-human TAU-antibodies (AT180—1:100; HT—1:500) and visualized using an anti-mouse Cy3 secondary antibody (1:500, Jackson laboratories®). Images were evaluated with ImageProPlus (version 6.2) image analysis software. For APP/PS1 transgenic animals sagittal hemisections (40 μm) were collected and processed for Aβ immunohistochemistry using an 6E10 antibody, Thioflavin-S staining Primary antibodies were detected by the ABC method.
ELISA quantification of α-Synuclein in the α-Synuclein transgenic animals: Brain homogenate was centrifuged and the supernatant saved as fraction F1. The pellet was washed then resuspended and saved as fraction F2. Plates (Nunc, 464718) were coated with SYN-1 (1:1000, BD Transduction Labs, 610787). Monomeric recombinant α-synuclein was included as an internal standard. Biotinylated antibody FL-140 (1:300, Santa Cruz Biotechnology, sc-10717-B) and ExtrAvidin-Alkaline phosphatase (3:5000, Sigma, E2636) was added followed by pNPP substrate solution (Sigma, N1891). Raw absorbance (405 nm) was then normalized to the total protein concentration of each sample. In the APP/PS1 transgenic animal, brains were homogenized and the supernatant, Faction 1, was separated from the pellet. The pellets were further processed with addition of NP40 and Triton X-100. The supernatant was separated from the pellet as the insoluble membrane, Fraction 2, and was dissolved in 8M Guanidine. To quantify the amount of human Aβ-40 and Aβ-42, ELISA kits were used (The Genetics Company, Zurich, Switzerland).
In FIG. 2 is shown efficacy data for LNK-754-TS in the Masliah D-line transgenic α-synuclein mouse (an accepted model of synucleinopathies). Two trials are shown, the first (FIG. 2A) at higher doses of LNK-754-TS: 45 mg/kg and 9 mg/kg. […] The second trial (FIG. 2B) explores the low dose range for efficacy in the α-synuclein models. […]
After dosing with LNK-754-TS for three months (twice daily at 0.09 mg/kg or 0.9 mg/kg), α-synuclein accumulation in the brain was analyzed by immunohistochemical (human specific α-synuclein immunoreactivity) and biochemical (α-synuclein ELISA) means. […]

Atg1 = assay: mRNA levels of autophagy-related genes (Atg1) in SH-SY5Y cells; type: cell-based, human; settings: 100 nM (FIG. 8d)
Procedure: Quantitative real-time PCR: Gene expression profiles were done by qPCR on series of known autophagy genes. RNA was extracted with Tri-reagent (Sigma), and cDNAs generated using iScript (Biorad). qPCR analysis was carried out in a 96 well plate using an iCycler (BioRad, Hercules, Calif.), and iQ SYBR Green Supermix (Biorad) according to the manufacturer's specifications.
The mechanism of autophagy stimulation by LNK-754-TS appears distinct from that of the drug rapamycin. Rapamycin is a well-characterized autophagy stimulator that acts through inhibition of mTOR, a kinase involved in nutrient signaling and regulation of cell growth and survival. […] To further contrast the mechanism of autophagy stimulation by LNK-754-TS to that of rapamycin, a collection of mRNA transcripts of autophagy proteins were measured (FIG. 8d). Selected mRNAs from untreated SH-SY5Y cells were compared to mRNAs from cells treated with LNK-754-TS (100 nM), tipifarnib (100 nM), or rapamycin (1 μM).

p70 S6 kinase (S6K) = assay: p70S6K phosphorylation in SH-SY5Y cells; type: cell-based, human; settings: FIG. 8f
aged non-transgenic rats = assay: Morris water maze in aged non-transgenic rats; type: in vivo, rat; settings: aged rats (22 months old), 0.3 mg/kg and 0.9 mg/kg once every 24 hours
Text: Morris water maze (MWM) analysis of cognitive performance: In APP/PS1 transgenic animals, swimming behavior in a Morris Water Maze was videotaped and analyzed (Ethovision, Noldus, Wageningen, Netherlands). For mice, a place navigation test was used to locate the hidden platform in five blocks of three trials over three consecutive days. Each trial consists of a forced swim test of maximum 120 seconds, followed by 60 seconds of rest. The time each mouse needed for location of the platform was measured. For rats, a cued learning phase was first conducted, consisting of 3 trials per day for 5 days, using a visible platform of varying location. Each trial consisted of a forced swim test of maximum 60 seconds, followed by 10 minutes of rest. The time and path length each rat needed to locate the platform was measured.
In order to rule out the possibility that the rapid observed improvement in cognition described above arose from an alternative, transgene-independent mechanism, aged non-transgenic rats (22 months old) were treated with LNK-754-TS (0.3 mg/kg and 0.9 mg/kg, once every 24 hours) and their cognitive performance was measured by MWM and compared to that of younger rats (3 months old) of the same strain.

Aβ = assay: h-APPsl transgenic mouse, Aβ immunoreactivity and extracted Aβ; type: in vivo; settings: 0.9 mg/kg once every 24 hr, three months
[1] = test system: 3T3 H-ras (61L) xenograft; settings: BID for 10 days; cited from earlier work
[2] = three-month dosing trial (FIG. 9c)
[3] = twice daily at 0.09 mg/kg or 0.9 mg/kg, three months

C#Cc1cccc(-c2cc(=O)n(C)c3ccc([C@](O)(c4ccc(Cl)cc4)c4cncn4C)cc23)c1 [LNK-754-TS, (R)-6-[(4-chlorophenyl)-hydroxyl-(1-methyl-1-H-imidazol-5-yl)-methyl]-4-(3-ethynylphenyl)-1-methyl-2-(1H)-quinonlinone (2S,3S)-dihydroxybutanedioate]
α-synuclein deposition in cortex and hippocampus (α-synuclein; 0.09 mg/kg twice every 24 hr): halts deposition
α-synuclein deposition in cortex and hippocampus (α-synuclein; 0.9 mg/kg twice every 24 hr): halts deposition
cortical α-synuclein immunoreactivity vs. baseline and vehicle (α-synuclein; 2 mg/kg once every 72 hr, three months (FIG. 9b)): significantly lower; also recorded: significantly reduces
number of α-synuclein positive neurons in the brain (α-synuclein; 9 mg/kg PO BID 3 months): significant reduction
number of α-synuclein IR cells in the hippocampus vs. saline (α-synuclein; 9 mg/kg group, PO BID 3 months, lower-dose trial (FIG. 2B)): significance level was not reached
number of α-synuclein positive neurons in the brain (α-synuclein; 45 mg/kg PO BID 3 months): not significantly effective
efficacious dose in the α-synuclein transgenic mouse (α-synuclein; PO BID 3 months): ≤ 9 mg/kg
number of α-synuclein IR cells in the hippocampus vs. saline (α-synuclein; all applied dosages except 9 mg/kg, PO BID 3 months (FIG. 2B)): significant decrease
effect on neuronal architecture (NeuN) (α-synuclein; [2]): lack of effect
reduction of α-synuclein immunoreactivity, representative hippocampal slices (α-synuclein; [2]): ca. 50%
astrocytosis: GFAP staining (α-synuclein; [3]): unchanged
drug-dependent toxicity (α-synuclein; [3]): None of the treated animals showed any evidence
neuronal loss: NeuN staining and brain volume (α-synuclein; [3]): unchanged
synaptic damage: synaptophysin staining (α-synuclein; [3]): unchanged
α-synuclein accumulation in the brain (immunoreactivity and ELISA) (α-synuclein; [3]): clearly reduced
mRNA levels of a set of autophagy-related genes (Atg1): unaffected
decrease / inhibition of p70S6K phosphorylation (p70 S6 kinase (S6K)): did not inhibit
cognitive performance (place learning curves, probe tests) (aged non-transgenic rats): no significant cognitive improvement
cortical Aβ immunoreactivity and Aβ extracted in the insoluble fractions (Aβ): did not significantly reduce
dose required for suppression of tumor growth [1]: at least 25 mg per kg
